Experimental data as given in PubChem BioAssay AID1259407 (Chemical Carcinogenesis Research Information System (CCRIS), 2018).
The source made the active and inactive calls. How the calls were made is not given here.

Test system: CCRIS mutagenicity, Ames/micronucleus/aberration tests
Assay: CCRIS mutagenicity studies
[1] = Test System: AMES SALMONELLA TYPHIMURIUM, Strain/Indicator: TA98, Metabolic Activation: NONE, Method: PREINCUBATION
[2] = Test System: AMES SALMONELLA TYPHIMURIUM, Strain/Indicator: TA98, Metabolic Activation: NONE, Method: STANDARD PLATE
[3] = Test System: AMES SALMONELLA TYPHIMURIUM, Strain/Indicator: TA100, Metabolic Activation: NONE, Method: PREINCUBATION
[4] = Test System: AMES SALMONELLA TYPHIMURIUM, Strain/Indicator: TA100, Metabolic Activation: NONE, Method: STANDARD PLATE
[5] = Test System: AMES SALMONELLA TYPHIMURIUM, Strain/Indicator: TA1535, Metabolic Activation: NONE, Method: PREINCUBATION
[6] = Test System: AMES SALMONELLA TYPHIMURIUM, Strain/Indicator: TA1537, Metabolic Activation: NONE, Method: PREINCUBATION

Clc1cccc(Cl)c1
mutagenic call (Test System: AMES SALMONELLA TYPHIMURIUM, Strain/Indicator: TA98, Metabolic Activation: HAMSTER, LIVER, S-9, AROCLOR 1254, Method: PREINCUBATION): inactive; negative
mutagenic call [1]: inactive; negative
mutagenic call [2]: inactive; negative
mutagenic call (Test System: AMES SALMONELLA TYPHIMURIUM, Strain/Indicator: TA98, Metabolic Activation: RAT, LIVER, S-9, AROCLOR 1254, Method: PREINCUBATION): inactive; negative
mutagenic call (Test System: AMES SALMONELLA TYPHIMURIUM, Strain/Indicator: TA98, Metabolic Activation: RAT, LIVER, S-9, AROCLOR, Method: STANDARD PLATE): inactive; negative
mutagenic call (Test System: AMES SALMONELLA TYPHIMURIUM, Strain/Indicator: TA100, Metabolic Activation: HAMSTER, LIVER, S-9, AROCLOR 1254, Method: PREINCUBATION): inactive; negative
mutagenic call [3]: inactive; negative
mutagenic call [4]: inactive; negative
mutagenic call (Test System: AMES SALMONELLA TYPHIMURIUM, Strain/Indicator: TA100, Metabolic Activation: RAT, LIVER, S-9, AROCLOR 1254, Method: PREINCUBATION): inactive; negative
mutagenic call (Test System: AMES SALMONELLA TYPHIMURIUM, Strain/Indicator: TA100, Metabolic Activation: RAT, LIVER, S-9, AROCLOR, Method: STANDARD PLATE): inactive; negative
mutagenic call (Test System: AMES SALMONELLA TYPHIMURIUM, Strain/Indicator: TA1535, Metabolic Activation: HAMSTER, LIVER, S-9, AROCLOR 1254, Method: PREINCUBATION): inactive; negative
mutagenic call [5]: inactive; negative
mutagenic call (Test System: AMES SALMONELLA TYPHIMURIUM, Strain/Indicator: TA1535, Metabolic Activation: RAT, LIVER, S-9, AROCLOR 1254, Method: PREINCUBATION): inactive; negative
mutagenic call (Test System: AMES SALMONELLA TYPHIMURIUM, Strain/Indicator: TA1537, Metabolic Activation: HAMSTER, LIVER, S-9, AROCLOR 1254, Method: PREINCUBATION): inactive; negative
mutagenic call [6]: inactive; negative
mutagenic call (Test System: AMES SALMONELLA TYPHIMURIUM, Strain/Indicator: TA1537, Metabolic Activation: RAT, LIVER, S-9, AROCLOR 1254, Method: PREINCUBATION): inactive; negative
mutagenic call (Test System: AMES SALMONELLA TYPHIMURIUM, Strain/Indicator: UTH8413, Metabolic Activation: NONE, Method: STANDARD PLATE): inactive; negative
mutagenic call (Test System: AMES SALMONELLA TYPHIMURIUM, Strain/Indicator: UTH8413, Metabolic Activation: RAT, LIVER, S-9, AROCLOR, Method: STANDARD PLATE): inactive; negative
mutagenic call (Test System: AMES SALMONELLA TYPHIMURIUM, Strain/Indicator: UTH8414, Metabolic Activation: NONE, Method: STANDARD PLATE): inactive; negative
mutagenic call (Test System: AMES SALMONELLA TYPHIMURIUM, Strain/Indicator: UTH8414, Metabolic Activation: RAT, LIVER, S-9, AROCLOR, Method: STANDARD PLATE): inactive; negative

O=[N+]([O-])c1ccccc1Br
mutagenic call [1]: inactive; negative
mutagenic call [3]: inactive; negative
mutagenic call (Test System: AMES SALMONELLA TYPHIMURIUM, Strain/Indicator: TA100, Metabolic Activation: RAT, LIVER, S-9, KANECHLOR 500, Method: PREINCUBATION): active; positive

CCC(=O)O
mutagenic call (Test System: AMES SALMONELLA TYPHIMURIUM, Strain/Indicator: TA97, Metabolic Activation: HAMSTER, LIVER, S-9, AROCLOR 1254 (10 OR 30%), Method: PREINCUBATION): inactive; negative
mutagenic call (Test System: AMES SALMONELLA TYPHIMURIUM, Strain/Indicator: TA97, Metabolic Activation: NONE, Method: PREINCUBATION): inactive; negative
mutagenic call (Test System: AMES SALMONELLA TYPHIMURIUM, Strain/Indicator: TA97, Metabolic Activation: RAT, LIVER, S-9, AROCLOR 1254 (10 OR 30%), Method: PREINCUBATION): inactive; negative
mutagenic call (Test System: AMES SALMONELLA TYPHIMURIUM, Strain/Indicator: TA97A, Metabolic Activation: NONE, Method: PREINCUBATION): inactive; negative
mutagenic call (Test System: AMES SALMONELLA TYPHIMURIUM, Strain/Indicator: TA97A, Metabolic Activation: RAT, LIVER, S-9, AROCLOR 1254, Method: PREINCUBATION): inactive; negative
mutagenic call (Test System: AMES SALMONELLA TYPHIMURIUM, Strain/Indicator: TA98, Metabolic Activation: HAMSTER, LIVER, S-9, AROCLOR 1254 (10 OR 30%), Method: PREINCUBATION): inactive; negative
mutagenic call [1]: inactive; negative
mutagenic call (Test System: AMES SALMONELLA TYPHIMURIUM, Strain/Indicator: TA98, Metabolic Activation: RAT LIVER S-9, PHENOBARBITAL AND BETA-NAPHTHOFLAVONE, Method: PREINCUBATION): inactive; negative
mutagenic call (Test System: AMES SALMONELLA TYPHIMURIUM, Strain/Indicator: TA98, Metabolic Activation: RAT, LIVER, S-9, AROCLOR 1254 (10 OR 30%), Method: PREINCUBATION): inactive; negative
mutagenic call (Test System: AMES SALMONELLA TYPHIMURIUM, Strain/Indicator: TA100, Metabolic Activation: HAMSTER, LIVER, S-9, AROCLOR 1254 (10 OR 30%), Method: PREINCUBATION): inactive; negative
mutagenic call [3]: inactive; negative
mutagenic call (Test System: AMES SALMONELLA TYPHIMURIUM, Strain/Indicator: TA100, Metabolic Activation: RAT LIVER S-9, PHENOBARBITAL AND BETA-NAPHTHOFLAVONE, Method: PREINCUBATION): inactive; negative
mutagenic call (Test System: AMES SALMONELLA TYPHIMURIUM, Strain/Indicator: TA100, Metabolic Activation: RAT, LIVER, S-9, AROCLOR 1254 (10 OR 30%), Method: PREINCUBATION): inactive; negative
mutagenic call (Test System: AMES SALMONELLA TYPHIMURIUM, Strain/Indicator: TA102, Metabolic Activation: NONE, Method: PREINCUBATION): inactive; negative
mutagenic call (Test System: AMES SALMONELLA TYPHIMURIUM, Strain/Indicator: TA102, Metabolic Activation: RAT, LIVER, S-9, AROCLOR 1254, Method: PREINCUBATION): inactive; negative
mutagenic call (Test System: AMES SALMONELLA TYPHIMURIUM, Strain/Indicator: TA1535, Metabolic Activation: HAMSTER, LIVER, S-9, AROCLOR 1254 (10 OR 30%), Method: PREINCUBATION): inactive; negative
mutagenic call [5]: inactive; negative
mutagenic call (Test System: AMES SALMONELLA TYPHIMURIUM, Strain/Indicator: TA1535, Metabolic Activation: RAT LIVER S-9, PHENOBARBITAL AND BETA-NAPHTHOFLAVONE, Method: PREINCUBATION): inactive; negative
mutagenic call (Test System: AMES SALMONELLA TYPHIMURIUM, Strain/Indicator: TA1535, Metabolic Activation: RAT, LIVER, S-9, AROCLOR 1254 (10 OR 30%), Method: PREINCUBATION): inactive; negative
mutagenic call (Test System: AMES SALMONELLA TYPHIMURIUM, Strain/Indicator: TA1537, Metabolic Activation: HAMSTER, LIVER, S-9, AROCLOR 1254 (30%), Method: PREINCUBATION): inactive; negative
mutagenic call [6]: inactive; negative
mutagenic call (Test System: AMES SALMONELLA TYPHIMURIUM, Strain/Indicator: TA1537, Metabolic Activation: RAT LIVER S-9, PHENOBARBITAL AND BETA-NAPHTHOFLAVONE, Method: PREINCUBATION): inactive; negative
mutagenic call (Test System: AMES SALMONELLA TYPHIMURIUM, Strain/Indicator: TA1537, Metabolic Activation: RAT, LIVER, S-9, AROCLOR 1254 (30%), Method: PREINCUBATION): inactive; negative
mutagenic call (Test System: E.COLI, Strain/Indicator: WP2UVRA/PKM101, Metabolic Activation: NONE, Method: PREINCUBATION): inactive; negative
mutagenic call (Test System: E.COLI, Strain/Indicator: WP2UVRA/PKM101, Metabolic Activation: RAT LIVER S-9, PHENOBARBITAL AND BETA-NAPHTHOFLAVONE, Method: PREINCUBATION): inactive; negative

c1ccc2c(c1)ccc1c2ccc2c3ccccc3ccc21
mutagenic call (Test System: AMES SALMONELLA TYPHIMURIUM, Strain/Indicator: TA100, Metabolic Activation: MOUSE, LIVER, S-10, AROCLOR 1254): active; positive

NC(=O)c1cccc2cccnc12
mutagenic call [2]: inactive; negative
mutagenic call (Test System: AMES SALMONELLA TYPHIMURIUM, Strain/Indicator: TA98, Metabolic Activation: RAT, LIVER, S-9, AROCLOR 1254, Method: STANDARD PLATE): inactive; negative
mutagenic call [4]: inactive; negative
mutagenic call (Test System: AMES SALMONELLA TYPHIMURIUM, Strain/Indicator: TA100, Metabolic Activation: RAT, LIVER, S-9, AROCLOR 1254, Method: STANDARD PLATE): active; positive
mutagenic call (Test System: AMES SALMONELLA TYPHIMURIUM, Strain/Indicator: TA1535, Metabolic Activation: NONE, Method: STANDARD PLATE): inactive; negative
mutagenic call (Test System: AMES SALMONELLA TYPHIMURIUM, Strain/Indicator: TA1535, Metabolic Activation: RAT, LIVER, S-9, AROCLOR 1254, Method: STANDARD PLATE): inactive; negative
mutagenic call (Test System: AMES SALMONELLA TYPHIMURIUM, Strain/Indicator: TA1537, Metabolic Activation: NONE, Method: STANDARD PLATE): inactive; negative
mutagenic call (Test System: AMES SALMONELLA TYPHIMURIUM, Strain/Indicator: TA1537, Metabolic Activation: RAT, LIVER, S-9, AROCLOR 1254, Method: STANDARD PLATE): inactive; negative
